# In ChEMBL document CHEMBL2311372, “Design and synthesis of novel benzoheterocyclic derivatives as human acrosin inhibitors by scaffold hopping” (Eur J Med Chem, 2013):
# Target: Acrosin (Homo sapiens, UniProt P10323)
# Assay: Inhibition of human acrosin using N-alpha-benzoyl-DL-arginine para-nitroanilide-HCl as substrate after 3 hrs by spectrophotometry
# Sequence of Acrosin (P10323 20-42 limits assumed): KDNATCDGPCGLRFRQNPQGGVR
# Sequence of Acrosin (P10323 43-343 limits assumed): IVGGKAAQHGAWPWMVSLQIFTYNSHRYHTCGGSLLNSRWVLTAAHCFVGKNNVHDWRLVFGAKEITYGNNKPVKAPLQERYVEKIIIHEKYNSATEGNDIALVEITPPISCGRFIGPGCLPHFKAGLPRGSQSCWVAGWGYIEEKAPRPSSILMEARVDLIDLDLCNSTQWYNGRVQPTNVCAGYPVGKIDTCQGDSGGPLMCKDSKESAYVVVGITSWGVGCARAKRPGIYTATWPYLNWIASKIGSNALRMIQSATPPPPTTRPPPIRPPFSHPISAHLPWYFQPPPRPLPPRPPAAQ
row,Compound,IC50 [mM]
1,CC(C)CCN(CCC(C)C)CC(=O)Nc1nc2ccc(Br)cc2s1,1.09
2,O=C(NCCO)Nc1nc2ccc(S(=O)(=O)NCc3cc(Cl)cc(Cl)c3)cc2[nH]1,2.45
3,COc1ccccc1CNS(=O)(=O)c1ccc2nc(NC(=O)NCCO)[nH]c2c1,6.04
4,Cc1ccc(S(=O)(=O)NC(CCCCN)C(=O)CCl)cc1 (stereo unspecified),143
5,CNC(=O)c1nn(C(=O)c2ccc(Cl)cc2Cl)c2ccccc12,3.78
6,CCCCCN(CCCCC)CC(=O)Nc1nc2ccc(Br)cc2s1,0.54
7,CCCCCCNS(=O)(=O)c1ccc2nc(NC(=O)NCCO)[nH]c2c1,1.62
8,O=C(NCCO)Nc1nc2ccc(S(=O)(=O)NCc3ccccc3F)cc2[nH]1,0.08
9,O=C(NCCO)Nc1nc2ccc(S(=O)(=O)NCc3ccccc3Cl)cc2[nH]1,1.06
10,O=Cc1cc(-c2ccc(Cl)cc2Cl)on1,39
11,Cc1cccc(CNS(=O)(=O)c2ccc3nc(NC(=O)NCCO)[nH]c3c2)c1,5.45
12,COc1cccc(CNS(=O)(=O)c2ccc3nc(NC(=O)NCCO)[nH]c3c2)c1,7.32
13,COc1ccc(-c2cc(C(=O)N(C)CCO)n[nH]2)cc1,6.81
14,O=C(NCCO)Nc1nc2ccc(S(=O)(=O)NCc3ccccc3)cc2[nH]1,0.28
15,COc1ccc(-c2cc(C(=O)NCC(C)O)n[nH]2)cc1 (stereo unspecified),8.92
16,O=C(NCCO)Nc1nc2ccc(S(=O)(=O)NCc3cc(F)cc(F)c3)cc2[nH]1,0.34
17,COc1ccc(-c2cc(C(=O)N(CCO)CCO)n[nH]2)cc1,5.73
18,CCCCCN1CCN(CC(=O)Nc2nc3ccc(Br)cc3s2)CC1,5.08
19,CCOC(=O)c1nn(C(=O)c2ccc(Cl)cc2Cl)c2ccccc12,3.24
20,CCCCN(CCCC)CC(=O)Nc1nc2ccc(Br)cc2s1,2.78
21,COc1ccc(-c2cc(C(=O)NCCCO)[nH]n2)cc1,1.43
